{
  "source": "patent US12397060B2",
  "about": "“pHLIP®-mediated intracellular delivery of immuno-stimulatory compounds” (University of Rhode Island Board of Trustees, priority 2019, dated 2025)",
  "origin": "cited, not measured here",
  "tested_on": "DCs, macrophages, T cells and endothelial cells sorted from B16 tumors",
  "settings": "stimulated ex vivo, expression highest in macrophages, followed by DCs",
  "data": [
    {"compound": "Cc1ccc2c(=O)c3cccc(CC(=O)O)c3oc2c1C", "note": "[DMXAA, 5,6-Dimethylxanthenone-4-acetic acid]", "values": [
      {"measurement": "IFN-β expression upon stimulation", "value": "All subsets expressed IFN-β"}
    ]},
    {"compound": "Nc1ncnc2c1ncn2[C@@H]1O[C@@H]2COP(=O)([S-])O[C@@H]3[C@H](O)[C@@H](COP([O-])(=S)O[C@H]2[C@H]1O)O[C@H]3n1cnc2c(N)ncnc21.[Na+].[Na+]", "note": "(some centres unmarked) [ML RR-S2 CDA, Dithio-(Rp, Rp)-2′,3′-CDA sodium salt]", "values": [
      {"measurement": "IFN-β expression upon stimulation", "value": "All subsets expressed IFN-β"}
    ]}
  ]
}
